Active and inactive are the calls of the source.
Assays:
[1] = HepG2 cell cytotoxicity, dose response, cytotoxicity control for Shn3 inhibitor project, CellTiter-Glo, cherry-picked (AID 624134); type: functional, cell-based
Beta-galactosidase = Beta-galactosidase (Escherichia coli, UniProt Q8VNN2); experiment: PubChem AID 485352; type: functional
[2] = control 3'UTR Renilla luciferase suppression, dose response, counter-screen for Shn3 inhibitor project, cell-based, Clone20-Shn3RL, cherry-picked (AID 624133); type: functional
[3] = tested on: Streptococcus sp. 'group A'; experiment: growth inhibition of control SK(-) GAS strain, dose response, counter-screen for streptokinase expression inhibitor project, luminescence, kanamycin, BacTiterGlo, confirmation (AID 1900); type: functional, organism-based
[4] = inhibitors of SNCA 5'UTR-driven reporter translation, confirmation, H4 neuroglioma cells, luminescence (AID 1988); type: functional, cell-based
[5] = inhibitors of firefly luciferase expression or activity, dose response, H4 neuroglioma cells, luminescence (AID 1990); type: functional, cell-based
Streptococcus = experiment: Group A Streptococcus viability loss, dose response, counter-screen for streptokinase expression inhibitor project, luminescence, BacTiterGlo (AID 1915); type: functional, organism-based;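 note: potency for reduction of bacterial viability or growth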
Streptokinase A = molecular target: T1, Streptokinase A (Streptococcus pyogenes serotype M1, UniProt P10520); experiment: S. pyogenes streptokinase expression inhibitors, potency, dose response, plasminogen activation absorbance, OD405 (AID 1914); type: functional, Streptococcus pyogenes M1 GAS;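 note: secreted streptokinase activity via plasminogen activation per viability signal from cell pellet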
T1 sequence (P10520 whole entry): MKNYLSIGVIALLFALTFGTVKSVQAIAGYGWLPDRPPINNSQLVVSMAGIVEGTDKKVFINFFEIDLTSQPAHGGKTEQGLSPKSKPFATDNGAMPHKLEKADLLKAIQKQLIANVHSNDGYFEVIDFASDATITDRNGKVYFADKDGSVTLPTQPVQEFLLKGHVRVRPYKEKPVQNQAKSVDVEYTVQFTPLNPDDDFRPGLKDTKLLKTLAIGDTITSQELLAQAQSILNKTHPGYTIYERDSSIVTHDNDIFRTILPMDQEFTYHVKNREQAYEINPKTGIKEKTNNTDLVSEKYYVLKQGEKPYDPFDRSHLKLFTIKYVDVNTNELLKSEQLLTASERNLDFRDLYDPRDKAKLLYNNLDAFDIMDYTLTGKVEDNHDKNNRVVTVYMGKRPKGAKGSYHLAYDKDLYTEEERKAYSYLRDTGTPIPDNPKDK

[6] = Shn3 3'UTR reporter inhibitors, dose response, cell-based, Clone20 osteoblasts, firefly luciferase, cherry-picked (AID 624132); type: functional;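 note: firefly luciferase luminescence from reporter carrying the Shn3 3'UTR in osteoblasts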
[7] = Luminescence Cell-Based Dose Response HTS to Identify Inhibitors of 5'UTR Stem-Loop Driven Prion Protein mRNA Translation in H4 Neuroglioblastoma Cells. [Related pubchem assays: 1827 (Project Summary), 1813 (Primary HTS)]; type: functional
[8] = molecular target: T2, Type-1 angiotensin II receptor (Homo sapiens, UniProt P30556); experiment: AT1 receptor antagonists, dose response, selectivity assay for APJ receptor antagonist project, cell-based, uHTS hits (AID 463214); type: functional;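 note: antagonist potency against angiotensin II stimulated AT1 response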
T2 sequence (P30556 whole entry): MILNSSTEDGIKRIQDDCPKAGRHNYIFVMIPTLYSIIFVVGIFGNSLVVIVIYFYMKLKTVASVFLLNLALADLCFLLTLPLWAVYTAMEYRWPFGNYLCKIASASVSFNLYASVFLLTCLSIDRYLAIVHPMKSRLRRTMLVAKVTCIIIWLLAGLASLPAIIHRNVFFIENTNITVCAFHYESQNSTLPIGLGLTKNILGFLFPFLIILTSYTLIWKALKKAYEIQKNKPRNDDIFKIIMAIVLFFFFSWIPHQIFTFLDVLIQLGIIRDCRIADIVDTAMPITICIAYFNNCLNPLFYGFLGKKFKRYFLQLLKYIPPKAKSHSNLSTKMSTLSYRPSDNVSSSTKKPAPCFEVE

[9] = molecular target: T3, Nucleotide-binding oligomerization domain-containing protein 1 (Homo sapiens, UniProt Q9Y239); experiment: NOD1 signaling inhibitors, SAR follow-up, revised (AID 2333); type: functional
T3 sequence (Q9Y239 whole entry): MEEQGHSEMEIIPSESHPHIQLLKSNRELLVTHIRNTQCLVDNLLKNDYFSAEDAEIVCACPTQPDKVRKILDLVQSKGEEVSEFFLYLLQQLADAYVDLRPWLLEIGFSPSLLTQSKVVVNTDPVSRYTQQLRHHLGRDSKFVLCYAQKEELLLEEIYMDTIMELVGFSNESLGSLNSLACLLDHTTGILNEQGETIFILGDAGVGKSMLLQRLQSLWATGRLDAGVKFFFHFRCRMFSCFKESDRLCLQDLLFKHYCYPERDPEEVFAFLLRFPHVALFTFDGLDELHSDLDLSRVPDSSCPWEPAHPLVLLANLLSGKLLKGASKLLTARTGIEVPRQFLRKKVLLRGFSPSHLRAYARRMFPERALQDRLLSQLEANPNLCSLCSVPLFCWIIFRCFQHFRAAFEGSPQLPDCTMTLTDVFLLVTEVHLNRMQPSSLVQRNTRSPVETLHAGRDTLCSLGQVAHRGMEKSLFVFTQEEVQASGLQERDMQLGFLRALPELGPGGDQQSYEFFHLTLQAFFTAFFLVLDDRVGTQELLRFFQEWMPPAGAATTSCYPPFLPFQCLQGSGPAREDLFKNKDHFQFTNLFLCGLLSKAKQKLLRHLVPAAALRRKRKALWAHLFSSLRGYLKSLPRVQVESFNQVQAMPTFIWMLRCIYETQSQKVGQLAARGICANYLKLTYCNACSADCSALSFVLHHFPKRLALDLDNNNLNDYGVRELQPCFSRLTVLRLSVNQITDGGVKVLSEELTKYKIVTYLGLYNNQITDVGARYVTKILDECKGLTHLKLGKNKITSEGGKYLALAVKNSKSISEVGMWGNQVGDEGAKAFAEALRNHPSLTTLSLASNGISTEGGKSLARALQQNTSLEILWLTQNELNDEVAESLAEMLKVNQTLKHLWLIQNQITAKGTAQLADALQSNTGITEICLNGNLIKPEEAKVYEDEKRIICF

Tumor necrosis factor = Tumor necrosis factor (Homo sapiens, UniProt P01375); experiment: TNFa-triggered NF-kB activation inhibitors, SAR follow-up, cell-based, revised (AID 2337); type: functional
HEK293 [10] = experiment: cells; type: functional, cell-based; conditions: Homo sapiens
HEK293 [11] = experiment: cells; type: functional, cell-based; conditions: Homo sapiens; remark: listed apart in the source
HEK293 [12] = experiment: NOD2 signaling inhibitors in MDP-stimulated cells, cell-based, uHTS, luminescence (AID 2001); type: functional; conditions: Homo sapiens
HEK293 [13] = experiment: NOD1 signaling inhibitors, primary screen, cell-based, luminescence, uHTS (AID 1578); type: functional; conditions: Homo sapiens
HEK293 [14] = experiment: cells; conditions: Homo sapiens
[15] = molecular target: Ras and Rab interactor 1/Tyrosine-protein kinase ABL1 (Homo sapiens, UniProt P00519+Q13671); type: functional;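 note: biochemical TR-FRET dose-response test measuring inhibition of binding between Rin1 and Abl proteins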
Insulin-degrading enzyme [16] = molecular target: T4, Insulin-degrading enzyme (Homo sapiens, UniProt P14735); experiment: activators of recombinant IDE enzyme, dose response, counter-screen for IDE activator project, biochemical, fluorescence polarization (AID 588681)
T4 sequence (P14735 whole entry): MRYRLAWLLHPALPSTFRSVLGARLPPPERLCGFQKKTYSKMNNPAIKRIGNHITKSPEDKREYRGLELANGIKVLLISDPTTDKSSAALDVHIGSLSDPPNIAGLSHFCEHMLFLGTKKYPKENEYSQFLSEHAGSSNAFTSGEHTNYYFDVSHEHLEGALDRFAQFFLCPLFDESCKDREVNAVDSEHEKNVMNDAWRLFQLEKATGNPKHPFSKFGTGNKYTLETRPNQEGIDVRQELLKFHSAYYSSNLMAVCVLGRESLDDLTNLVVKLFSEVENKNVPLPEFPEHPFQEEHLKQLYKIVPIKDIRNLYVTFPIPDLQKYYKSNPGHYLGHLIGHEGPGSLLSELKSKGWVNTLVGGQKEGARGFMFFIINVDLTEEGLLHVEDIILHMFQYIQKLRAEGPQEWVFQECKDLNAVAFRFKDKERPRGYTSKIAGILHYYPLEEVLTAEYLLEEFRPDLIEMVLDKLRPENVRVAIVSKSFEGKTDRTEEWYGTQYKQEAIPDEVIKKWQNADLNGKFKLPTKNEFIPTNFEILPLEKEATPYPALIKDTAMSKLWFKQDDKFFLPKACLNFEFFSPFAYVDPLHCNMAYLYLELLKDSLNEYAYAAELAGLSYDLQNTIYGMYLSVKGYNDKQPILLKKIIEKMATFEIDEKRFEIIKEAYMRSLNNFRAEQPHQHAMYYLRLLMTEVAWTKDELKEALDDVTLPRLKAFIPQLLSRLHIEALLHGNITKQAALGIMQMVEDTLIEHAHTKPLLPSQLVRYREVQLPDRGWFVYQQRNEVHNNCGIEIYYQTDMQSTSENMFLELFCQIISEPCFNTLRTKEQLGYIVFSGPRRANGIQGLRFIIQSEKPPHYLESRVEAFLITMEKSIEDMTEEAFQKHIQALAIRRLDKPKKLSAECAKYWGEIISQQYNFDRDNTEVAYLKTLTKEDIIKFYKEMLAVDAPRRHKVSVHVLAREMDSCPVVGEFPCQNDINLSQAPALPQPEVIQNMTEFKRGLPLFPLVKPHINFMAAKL

Insulin-degrading enzyme [17] = molecular target: T4, Insulin-degrading enzyme; experiment: activators of endogenous IDE in HEK cells, dose response, cell-based, fluorescence polarization (AID 588439); type: functional
HEK293 [18] = experiment: HEK cell cytotoxicity by LDH release, dose response, cytotoxicity control for IDE activator project, fluorescence, HEK cells (AID 588440); type: functional, cell-based; conditions: Homo sapiens;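 note: cytotoxicity by LDH release measuring loss of membrane integrity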
HEK293 [19] = experiment: optical interference in Abeta FP readout, dose response, artefact control for IDE activator project, biochemical, fluorescence polarization (AID 588442); type: functional, cell-based; conditions: Homo sapiens
Cytochrome P450 3A4 = Cytochrome P450 3A4 (Homo sapiens, UniProt P08684);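 note: CYP3A4 tested as one member of a cytochrome P450 panel screen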
[20] = nonselective inhibitors of cellular cAMP signaling, dose response, counter-screen for MC4R biased antagonist project, cell-based, TR-FRET cAMP detection (AID 602305); type: functional;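 note: U2OS cells stimulated with forskolin near its EC80 as the cAMP inducer; potency is for inhibition of forskolin-stimulated cAMP signaling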
Melanocortin receptor 4 = Melanocortin receptor 4 (Homo sapiens, UniProt P32245); experiment: MC4R antagonist potency on cAMP, dose response, cell-based, TR-FRET, biased antagonists (AID 602298); type: functional;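 note: antagonist potency against agonist-stimulated cAMP production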
HeLa = experiment: HeLa cell cytotoxicity, dose response, cytotoxicity control for MITF activator project, CellTiter-Glo luminescence, cherry-pick samples (AID 540259); type: functional, cell-based; conditions: Homo sapiens

Cytochrome P450 3A4, sequence (P08684 whole entry): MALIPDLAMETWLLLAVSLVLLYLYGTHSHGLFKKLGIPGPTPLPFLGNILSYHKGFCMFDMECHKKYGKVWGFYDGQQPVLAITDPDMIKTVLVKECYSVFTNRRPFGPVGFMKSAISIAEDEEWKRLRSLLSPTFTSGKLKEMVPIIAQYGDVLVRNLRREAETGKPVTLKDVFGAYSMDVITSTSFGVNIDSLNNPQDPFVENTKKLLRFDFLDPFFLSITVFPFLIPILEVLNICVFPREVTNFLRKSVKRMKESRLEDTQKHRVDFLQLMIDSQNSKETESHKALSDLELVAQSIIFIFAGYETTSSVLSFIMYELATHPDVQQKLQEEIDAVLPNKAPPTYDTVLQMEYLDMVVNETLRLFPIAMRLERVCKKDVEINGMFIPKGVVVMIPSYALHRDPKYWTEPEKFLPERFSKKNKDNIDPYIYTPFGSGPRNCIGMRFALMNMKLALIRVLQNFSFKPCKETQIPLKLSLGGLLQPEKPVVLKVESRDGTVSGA
Beta-galactosidase, sequence (Q8VNN2 whole entry): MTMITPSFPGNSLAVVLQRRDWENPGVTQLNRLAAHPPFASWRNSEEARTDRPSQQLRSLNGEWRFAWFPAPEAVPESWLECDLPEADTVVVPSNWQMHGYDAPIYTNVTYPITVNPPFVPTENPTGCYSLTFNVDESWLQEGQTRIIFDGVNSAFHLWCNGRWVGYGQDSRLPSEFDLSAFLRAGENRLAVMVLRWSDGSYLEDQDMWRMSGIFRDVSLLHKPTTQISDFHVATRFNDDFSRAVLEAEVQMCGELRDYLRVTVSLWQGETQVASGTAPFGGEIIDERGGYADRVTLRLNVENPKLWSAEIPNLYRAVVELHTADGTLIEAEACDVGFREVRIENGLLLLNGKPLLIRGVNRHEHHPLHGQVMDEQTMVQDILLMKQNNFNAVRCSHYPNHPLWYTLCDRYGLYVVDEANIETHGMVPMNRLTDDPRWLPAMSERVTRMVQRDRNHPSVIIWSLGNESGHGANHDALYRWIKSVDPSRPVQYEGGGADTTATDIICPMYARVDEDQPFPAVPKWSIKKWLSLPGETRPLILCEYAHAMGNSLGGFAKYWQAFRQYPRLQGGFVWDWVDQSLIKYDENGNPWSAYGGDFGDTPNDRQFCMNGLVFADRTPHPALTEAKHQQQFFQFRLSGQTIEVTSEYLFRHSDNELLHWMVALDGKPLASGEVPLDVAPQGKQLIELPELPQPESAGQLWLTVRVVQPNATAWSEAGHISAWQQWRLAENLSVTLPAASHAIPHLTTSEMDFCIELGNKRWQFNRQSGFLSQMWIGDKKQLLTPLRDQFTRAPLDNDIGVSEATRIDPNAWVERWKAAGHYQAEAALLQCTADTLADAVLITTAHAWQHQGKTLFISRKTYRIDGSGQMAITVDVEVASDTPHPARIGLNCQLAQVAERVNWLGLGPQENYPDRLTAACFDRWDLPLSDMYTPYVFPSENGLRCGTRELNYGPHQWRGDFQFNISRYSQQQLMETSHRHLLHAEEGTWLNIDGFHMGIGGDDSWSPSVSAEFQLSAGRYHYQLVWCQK
Ras and Rab interactor 1/Tyrosine-protein kinase ABL1, sequence (P00519 whole entry): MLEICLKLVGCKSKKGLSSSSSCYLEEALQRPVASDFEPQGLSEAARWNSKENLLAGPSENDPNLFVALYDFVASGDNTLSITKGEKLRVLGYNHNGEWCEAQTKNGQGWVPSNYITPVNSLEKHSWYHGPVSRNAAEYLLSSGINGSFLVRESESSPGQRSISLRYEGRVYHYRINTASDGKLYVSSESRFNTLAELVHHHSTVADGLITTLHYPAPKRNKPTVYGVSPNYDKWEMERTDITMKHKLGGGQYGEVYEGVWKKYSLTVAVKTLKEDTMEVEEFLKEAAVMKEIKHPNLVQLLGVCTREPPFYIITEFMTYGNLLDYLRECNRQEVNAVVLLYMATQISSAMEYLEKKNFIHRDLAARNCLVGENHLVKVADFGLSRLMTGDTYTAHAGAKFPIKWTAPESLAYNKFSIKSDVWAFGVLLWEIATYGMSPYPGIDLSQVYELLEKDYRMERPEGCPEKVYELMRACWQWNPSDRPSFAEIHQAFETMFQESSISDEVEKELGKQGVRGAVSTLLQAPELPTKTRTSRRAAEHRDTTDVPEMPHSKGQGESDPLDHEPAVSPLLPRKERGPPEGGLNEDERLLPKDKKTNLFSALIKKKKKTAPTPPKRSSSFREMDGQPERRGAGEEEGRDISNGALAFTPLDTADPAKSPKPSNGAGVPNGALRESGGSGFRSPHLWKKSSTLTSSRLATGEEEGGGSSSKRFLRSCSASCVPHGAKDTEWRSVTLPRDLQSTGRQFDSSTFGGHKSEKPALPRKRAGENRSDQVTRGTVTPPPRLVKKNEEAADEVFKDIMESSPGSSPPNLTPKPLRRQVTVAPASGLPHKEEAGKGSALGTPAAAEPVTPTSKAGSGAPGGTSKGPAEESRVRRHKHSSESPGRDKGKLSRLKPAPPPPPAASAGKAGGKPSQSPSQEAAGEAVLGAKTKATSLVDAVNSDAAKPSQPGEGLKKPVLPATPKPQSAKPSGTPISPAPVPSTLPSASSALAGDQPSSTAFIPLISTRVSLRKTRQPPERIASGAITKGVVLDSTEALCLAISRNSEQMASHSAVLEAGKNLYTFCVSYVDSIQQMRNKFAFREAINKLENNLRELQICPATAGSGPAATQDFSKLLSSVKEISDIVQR
Ras and Rab interactor 1/Tyrosine-protein kinase ABL1, sequence (Q13671 whole entry): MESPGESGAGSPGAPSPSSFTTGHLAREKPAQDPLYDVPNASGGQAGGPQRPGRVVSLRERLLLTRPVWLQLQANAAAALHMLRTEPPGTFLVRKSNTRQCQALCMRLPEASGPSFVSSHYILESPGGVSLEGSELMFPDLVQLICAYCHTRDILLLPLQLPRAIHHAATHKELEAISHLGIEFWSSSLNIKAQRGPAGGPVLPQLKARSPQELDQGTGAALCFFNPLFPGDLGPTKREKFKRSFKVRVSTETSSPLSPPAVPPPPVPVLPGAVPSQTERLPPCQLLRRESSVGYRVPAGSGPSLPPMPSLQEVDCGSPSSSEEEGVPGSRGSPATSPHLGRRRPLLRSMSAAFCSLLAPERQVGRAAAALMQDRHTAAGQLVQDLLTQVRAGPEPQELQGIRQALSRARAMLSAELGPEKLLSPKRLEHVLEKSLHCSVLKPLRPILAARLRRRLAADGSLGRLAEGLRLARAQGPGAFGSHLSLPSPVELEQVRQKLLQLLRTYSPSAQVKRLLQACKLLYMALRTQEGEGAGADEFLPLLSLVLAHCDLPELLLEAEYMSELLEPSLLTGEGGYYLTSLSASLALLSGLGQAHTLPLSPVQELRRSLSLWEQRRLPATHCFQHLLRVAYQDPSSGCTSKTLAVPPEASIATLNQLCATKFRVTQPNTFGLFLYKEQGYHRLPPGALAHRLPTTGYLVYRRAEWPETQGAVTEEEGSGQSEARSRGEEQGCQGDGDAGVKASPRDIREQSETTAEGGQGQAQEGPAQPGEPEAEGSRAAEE
Melanocortin receptor 4, sequence (P32245 whole entry): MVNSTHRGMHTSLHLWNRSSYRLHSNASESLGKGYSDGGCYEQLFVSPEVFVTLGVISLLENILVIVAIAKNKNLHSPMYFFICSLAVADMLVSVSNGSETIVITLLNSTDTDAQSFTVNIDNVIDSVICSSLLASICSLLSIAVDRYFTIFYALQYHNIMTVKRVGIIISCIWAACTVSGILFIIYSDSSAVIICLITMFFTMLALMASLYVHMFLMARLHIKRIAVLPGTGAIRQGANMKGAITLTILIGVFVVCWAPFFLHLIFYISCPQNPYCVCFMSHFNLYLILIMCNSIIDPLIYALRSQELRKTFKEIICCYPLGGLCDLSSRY
Tumor necrosis factor, sequence (P01375 whole entry): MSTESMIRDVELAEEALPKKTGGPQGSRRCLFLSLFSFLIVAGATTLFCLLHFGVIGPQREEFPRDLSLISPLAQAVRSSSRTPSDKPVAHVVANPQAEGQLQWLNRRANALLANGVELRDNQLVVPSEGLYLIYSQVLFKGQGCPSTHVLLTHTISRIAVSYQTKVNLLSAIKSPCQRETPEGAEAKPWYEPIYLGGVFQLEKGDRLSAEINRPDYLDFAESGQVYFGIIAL

SMILES: Cc1ccc(CS(=O)(=O)c2ncc(Cl)c(C(=O)Nc3ccc(OC(F)F)cc3)n2)cc1
- AC50 [1]: 61.5 µM (active)
- EC50 (Beta-galactosidase): > 40 µM (inactive)
- AC50 [2]: 13.5 µM (active)
- EC50 [3]: 8.23 µM (active)
- EC50 [4]: 18.1 µM (active)
- EC50 [5]: > 120 µM (not active)
- EC50 (Streptococcus): 22.1 µM (active)
- EC50 (Streptokinase A): 2.07 µM (active)
- AC50 [6]: 2.34 µM (active)
- EC50 [7]: 12.7 µM (active)
- IC50 [8]: 11.3 µM (active)

SMILES: COCC1CCN(C(=O)c2cc(COc3ccc4ncccc4c3)on2)CC1
- AC50 [1]: 42.1 µM (active)
- IC50 [9]: 3.13 µM (active)
- IC50 (Tumor necrosis factor): 4.81 µM (active)
- IC50 (HEK293 [10]): 8.36 µM (active)
- AC50 [2]: 10.5 µM (active)
- IC50 (HEK293 [11]): > 20 µM (inactive)
- IC50 (HEK293 [12]): 14.8 µM (inactive)
- AC50 [6]: 2.7 µM (active)
- EC50 (HEK293 [13]): 2.31 µM (active)
- IC50 (HEK293 [14]): > 20 µM (inactive)

SMILES: Oc1cc(SCc2ccccc2)ncn1
- IC50 [15]: 0.514 µM (active)

SMILES: O=C(Nc1cc(S(=O)(=O)N2CCOCC2)ccc1N1CCOCC1)c1ccccc1F
- EC50 (Insulin-degrading enzyme [16]): > 54.7 µM (inactive)
- EC50 (Insulin-degrading enzyme [17]): > 54.7 µM (inactive)
- IC50 (HEK293 [18]): > 89.2 µM (inactive)
- EC50 (HEK293 [19]): > 54.7 µM (inactive)

SMILES: COc1ccc(C(=O)N2CCC3(CCN(Cc4nccs4)CC3)CC2)cc1
- AC50 (Cytochrome P450 3A4): inconclusive

SMILES: Cc1sc2nc(CN3CCOCC3)nc(Cl)c2c1C
- IC50 [20]: > 64.5 µM (inactive)
- IC50 (Melanocortin receptor 4): > 64.5 µM (inactive)

SMILES: CC/C(=N\NC(=O)c1csc(C)c1C)c1cccs1
- AC50 (HeLa): > 350 µM (inactive)

Source: ChEMBL document CHEMBL1201862, “PubChem BioAssay data set” (2004)
